Measured values reported in patent US9443060B2, “Method and system to provide personalized pharmaceutical compositions and dosages” (Volant Holdings GMBH, priority 2009, dated 2016).
Entries after “also recorded” stand apart in the source; their conditions may differ. Read-outs that look alike come from different tables or passages of the source.

Tests used:
[1] = system: caloric intake; settings: Lee and Morley, T2D, cited from earlier work
[2] = system: metabolic syndrome; assay: FS index / neural net model of cardiovascular risk in metabolic syndrome patient populations; type: in vivo, human
Procedure: The FS index of MS comprises the following parameters: Fasting Blood Glucose, Fasting Insulin, HBA1c, BMI, AST, Triglycerides, Glucose Supply-Demand (S/D) index, and in certain cases, Proinsulin. Each parameter was mathematically arranged to increase as MS worsened, and weighted approximately equally in the prediction of MS progression and risk for CV events. […] FS index values were calculated from serial laboratory and clinical data over timeframes ranging between 2 and 10 years.
Neural Net Models and Data Display Methods. […] Unless otherwise stated, standard deviations (z-score) vs. time are presented in the individual and mean population graphics.
For purposes of analysis, clinical and laboratory parameters were converted into modified z-scores as follows: • A mean normal value (described as “mean” in the following) was selected based on review of literature and various published laboratory compendia. The Standard Deviation (SD) of each parameter was set to one half of the normal range. The modified z-score is calculated as follows: z=(Patient value−“mean”)/SD • On the graphs, the z-score is reported as the number of SD.
The FS index considered the following: Fasting Blood Glucose, Fasting Insulin, HBA1c, BMI, AST, Triglycerides, Glucose Supply-Demand (S/D) index, and in some cases Proinsulin. […] Each of these parameters was mathematically arranged to increase as Metabolic Syndrome worsened, and weighted approximately equally in the prediction of Metabolic Syndrome progression and risk for CV events.
The FS index was then applied to well-studied patient populations using a neural net model.
[formula] Where FBG is Fasting Blood Glucose in mg/dl and normal value is 100 mg/dl TG is Triglycerides in mg/dl normal value is <150 HBA1c is hemoglobin A1c in %, normal value is <6% BMI is body mass index as kg/m2 where a normal value is 20 and obese begins above 25 AST is Aspartate Transferase also called SGOT in IU/liter and a normal value is 5-50 FB insulin is fasting Blood insulin concentration in nmol/liter, a normal value is 4.0

CN(C)C(=N)N=C(N)N [Metformin]
reduction of total caloric intake during the 30 min period ([1]; metformin 850 mg for 3 days): 30% | reduction of total caloric intake during the 30 min period ([1]; metformin 1700 mg for 3 days): 50% | FS index response to treatment ([2]; normal 20-50, 61 T2D on metformin, 100 RYGB, 18 Brake, 33 exenatide, 12 sitagliptin patients): Their FS index rises; also recorded: flat or slowly rising | other parameters of metabolic syndrome (BMI/weight, HBSD, lipids, NAFLD, blood pressure, insulin) ([2]; same patient populations as FS index): their HBSD rises, they gain weight
